Reference: paper PMC12298624, “Anti-Infective Properties, Cytotoxicity, and In Silico ADME Parameters of Novel 4′-(Piperazin-1-yl)benzanilides” (Pharmaceuticals, 2025)

Tests used:
[1] = system: P. falciparum NF54; experiment: In vitro microplate assay against P. falciparum NF54 (3H-hypoxanthine incorporation); format: cell-based, Plasmodium falciparum; conditions: Plasmodium falciparum, NF54, chloroquine-sensitive strain NF54, erythrocytic stages; read-out: P.f.NF54 IC50
Method: Serial drug dilutions of eleven 3-fold dilution steps covering a range from 100 to 0.002 µg/mL were prepared. […] After 48 h of incubation time, 0.05 mL of ^3H-hypoxanthine (=0.5 µCi) was added to each well of the plate. The plates were incubated for a further 24 h under the same conditions. Plates were then harvested using a BetaplateTM cell harvester (Wallac, Zurich, Switzerland). Red blood cells were transferred onto a glass fiber filter and then washed with distilled aqua demin. The dried filters were inserted into a plastic foil with 10 mL of scintillation fluid and counted in a BetaplateTM liquid scintillation counter (Wallac, Zurich, Switzerland). IC50 values were calculated from sigmoidal inhibition curves by linear regression using Microsoft Excel. […] Louis, MO, USA) was used as control.

[2] = Parallel artificial membrane permeability assay (PAMPA); conditions: PAMPA, pH 7.4, Pe, PBS pH 7.4, 200 µM, 5 h, room temperature
Method: With the high-throughput PAMPA the newly synthesized compounds were tested for their passive permeability through cell membranes without the influence of efflux pumps or transporter proteins. The assay was performed using a Corning® Gentest^TM Precoated PAMPA Plate System (Corning, Glendale, AZ, USA) with 96-well polystyrene plates. The bottom of the acceptor plate consists of a porous membrane, whereby the pores are lined with a lipid–oil–lipid triple layer. Stock solutions of each test compound at 10 mM were prepared in DMSO or methanol and diluted with phosphate-buffered saline (PBS at a pH of 7.4) to a final concentration of 200 µM. […] The donor plate (bottom plate) was filled with the compound solutions, whereby all compounds were tested in quadruplicates. Each well of the acceptor plate (top plate) was filled with PBS buffer. Donor and acceptor plates were combined and incubated at room temperature for 5 h. After that, the plates were separated and 150 µL of each well of both plates were transferred to 96-well UV plates (Greiner Bio-One). Absorption at different wavelengths covering a range from 200 to 300 nm was measured using a SpectraMax M3 UV plate reader. […] The plates were analyzed at the wavelength where the R2 value of the calibration curve was higher than 0.99 [47].
Recovery of compounds from donor and acceptor wells (mass retention) was calculated as shown in the equation below. Data were only accepted when recovery exceeded 70%. The equation is as follows:(3) R=1−[cDt×VD+cAt×VA]/(c0×VD) where

[3] = Resazurin-based in vitro cytotoxicity with L-6 cells; format: cell-based, rat; conditions: rat
Method: Serial drug dilutions of eleven 3-fold dilution steps covering a range from 100 to 0.002 µg/mL were prepared. After 70 h of incubation, the plates were inspected under an inverted microscope to assure growth of the controls and sterile conditions. […] The plates were read with a Spectramax Gemini XS microplate fluorometer (Molecular Devices Cooperation, Sunnyvale, CA, USA) using an excitation wavelength of 536 nm and an emission wavelength of 588 nm. IC50 values were calculated by linear regression from the sigmoidal dose–inhibition curves using SoftmaxPro software Version 8.2.1 (Molecular Devices Cooperation, Sunnyvale, CA, USA). Podophyllotoxin (Sigma P4405) was used as control.

[4] = system: E. coli NCTC 13353; experiment: MIC/MBC microbroth dilution (EUCAST); format: cell-based, Escherichia coli; conditions: Escherichia coli; for MBC: NCTC13353; for MIC: NCTC13353, read-out: MIC
Method: (§1) Minimum inhibitory concentrations (MIC values) were obtained using the microbroth dilution method as stated in the EUCAST guidelines. Tests were conducted on cation adjusted Mueller–Hinton broth (caMHB) or agar (caMHA). These were prepared and stored following the manufacturer’s guidelines. Biological organisms were prepared via growth on either Luria–Bertani (LB) or cation adjusted Mueller–Hinton agar plates. These were grown for 24 h at 37 °C, except for Micrococcus luteus where MICs took longer to grow and as a consequence were read after 48 h once a clear positive control could be observed. For the MIC experiment, the bacteria were prepared using the McFarland 0.5 standard and diluted 1 in 100 or 1 in 10 in caMHB following EUCAST and CSLI guidelines for the preparation of bacteria. Testing of the compounds using the microbroth dilution method took place in 96-well plates. Serial 2-fold dilutions of compounds in caMHB covering a range from 256 µg/mL to 0.25 µg/mL were prepared. Bacteria preparations (McFarland) were added to the compound dilutions, further halving the compound concentrations. The plate was then incubated for 18 h at 37 °C. Controls for the MIC experiments included a bacterial growth (positive) control of bacteria and caMHB only and a media only (negative) control. After incubation, the plates were read, whereby the positive control of bacteria was visible and the negative control was clear of contamination. The last clear well, where there is no growth of bacteria, was counted as the MIC value. […] The lowest concentration without any bacterial growth was counted as the MBC value. The following pathogens were used: Pseudomonas aeruginosa NCTC 13437, Escherichia coli NCTC 13353, Bacillus subtilis 168a, Serratia marcescens NCTC 9940, Micrococcus luteus ATCC 10240, Staphylococcus aureus JE2 USA 300, Acinetobacter baumannii ATCC 19606, and Klebsiella pneumoniae ATCC 700603. A concentration range of 256 µg/mL to 0.25 µg/mL of a combination of ciprofloxacin and meropenem against E. coli 25922 was used as an antibiotic control to ensure correct dilution and performance of the assay.

[5] = system: A. baumannii ATCC 19606; experiment: MIC/MBC microbroth dilution (EUCAST); format: cell-based, Acinetobacter baumannii; conditions: Acinetobacter baumannii; for MBC: ATCC19606; for MIC: ATCC19606, read-out: MIC
Method: as §1

[6] = system: B. subtilis 168a; experiment: MIC/MBC microbroth dilution (EUCAST); format: cell-based, Bacillus subtilis; conditions: Bacillus subtilis, 168A; for MIC: read-out: MIC
Method: as §1

[7] = system: P. aeruginosa NCTC 13437; experiment: MIC/MBC microbroth dilution (EUCAST); format: cell-based; conditions: Pseudomonas aeruginosa, NCTC13437
Method: as §1

[8] = system: S. aureus JE2 USA 300; experiment: MIC/MBC microbroth dilution (EUCAST); format: cell-based; conditions: Staphylococcus aureus, USA300, S. aureus JE2 USA 300
Method: as §1

[9] = system: K. pneumoniae ATCC 700603; experiment: MIC/MBC microbroth dilution (EUCAST); format: cell-based; conditions: Klebsiella pneumoniae, ATCC700603
Method: as §1

[10] = system: S. marcescens NCTC 9940; experiment: MIC/MBC microbroth dilution (EUCAST); format: cell-based; conditions: Serratia marcescens, NCTC9940
Method: as §1

[11] = Resazurin-based in vitro cytotoxicity with HepG2 cells; format: cell-based, human; conditions: HepG2 cells; human hepatocarcinoma cells, 48 h
Method: The HepG2 cells were washed with DPBS (Dulbecco’s PBS without calcium and magnesium, Gibco, Cat #21600-044) and trypsinized with trypsin solution in DPBS. Trypsinization was stopped by adding culture medium, and after being stained with Trypan Blue (SORS Ukraine) cells were counted using a counting chamber (Hausser Scientific, Cat #3500). The cell suspension was placed in a falcon tube containing plating medium DMEM/High glucose with 1% fetal bovine serum, 100 units/mL penicillin, and 100 µg/mL streptomycin. Cells at a density of 250,000 cells/mL were seeded in sterile 384-well plates (Greiner Bio-One, Cat #781091) in a volume of […] and incubated at 37 °C and 5% CO2. Serial dilutions of ten 3-fold dilution steps of test and reference compounds covering a range from 100.0 to 0.005 µM were added to the wells, followed by incubation at 37 °C and 5% CO2 for 48 h. Then, resazurin (50 µM final concentration) was added and plates were incubated for another 3 h. The plates were read with a SpectraMax microplate reader (Molecular Devices Cooperation, Sunnyvale, CA, USA)) using an extinction wavelength of 555 nm and an emission wavelength of 570 nm. IC50 values were calculated using GraphPad Prism 9.0 charting software. Doxorubicin (Sigma Aldrich D1515) was used as control.

Row | Structure (SMILES) | IC50 [1] [µM] | Papp at 5 h, 200 µM [2] [×10⁻⁶ cm/s] | IC50 at 70 h [3] [µM] | MBC [4] [µg/mL] | MIC [4] [µg/mL] | MBC [5] [µg/mL] | MIC [5] [µg/mL] | MBC [6] [µg/mL] | MIC [6] [µg/mL] | MBC [7] [µg/mL] | MIC [7] [µg/mL] | MBC [8] [µg/mL] | MIC [8] [µg/mL] | MBC [9] [µg/mL] | MIC [9] [µg/mL] | MBC [10] [µg/mL] | MIC [10] [µg/mL] | IC50 at 48 h [11] [µM]
1 | O=C(Nc1ccc(N2CCNCC2)cc1)c1cccc(C(F)(F)F)c1Oc1ccc(F)cc1 [Compound 57, 2-(4-Fluorophenoxy)-N-[4-(piperazin-1-yl)phenyl]-3-(trifluoromethyl)benzamide] | 3.15 | 6.89 | 37.3 | > 256 | > 256 | 256 | 128 | 256 | 128 | > 256 | > 256 | 128 | 128 | 128 | 128 | > 256 | > 256 | 10.4
2 | O=C(Nc1ccc(N2CCNCC2)cc1)c1ccccc1Oc1ccc(F)cc1 [Compound 59, 2-(4-Fluorophenoxy)-N-[4-(piperazin-1-yl)phenyl]benzamide] | 2.04 | 14.2 | 25.4 | > 256 | 256 | 256 | 256 | 128 | 128 | > 256 | > 256 | 128 | 128 | 128 | 128 | > 256 | > 256 | 38.9
3 | O=C(Nc1ccc(N2CCNCC2)cc1)c1cccc(F)c1Oc1ccc(F)cc1 [Compound 60, 3-Fluoro-2-(4-fluorophenoxy)-N-[4-(piperazin-1-yl)phenyl]benzamide] | 4.7 | 11.7 | 40.8 | > 256 | > 256 | > 256 | > 256 | 256 | 256 | > 256 | > 256 | > 256 | > 256 | > 256 | > 256 | > 256 | > 256 | 26.2
